{"source": "ChEMBL document CHEMBL4359910", "about": "“From random to rational: A discovery approach to selective subnanomolar inhibitors of human carbonic anhydrase IV based on the Castagnoli-Cushman multicomponent reaction” (Eur J Med Chem, 2019)", "key": {"ARPE-19 [1]": {"tested_on": "ARPE-19", "experiment": "Cytotoxicity against human ARPE19 cells at 30 to 300 uM measured after 48 hrs under normoxia condition in presence of CoCl2 by MTT assay relative to control", "type": "cell-based", "conditions": "arpe-19, 48 h"}, "T98G": {"tested_on": "T98G", "experiment": "Cytotoxicity against human T98G cells measured after 48 hrs under normoxia condition in presence of CoCl2 by MTT assay", "type": "functional, cell-based"}, "ARPE-19 [2]": {"tested_on": "ARPE-19", "experiment": "Cytotoxicity against human ARPE19 cells at 300 uM measured after 48 hrs under normoxia condition in presence of CoCl2 by MTT assay", "type": "cell-based", "conditions": "arpe-19, 48 h"}}, "data": [{"smiles": "CC(=O)OCCNC(=O)[C@H]1CC(=O)N(c2ccc(S(N)(=O)=O)cc2)[C@@H]1c1ccc(Cl)cc1", "values": [{"measurement": "Activity", "setting": "ARPE-19 [1]", "value": 80, "unit": "%"}, {"measurement": "Activity", "setting": "T98G", "value": "Dose-dependent effect"}]}, {"smiles": "NS(=O)(=O)c1ccc(N2C(=O)C[C@H](C(=O)NCCCn3ccnc3)[C@H]2c2ccc(Cl)cc2)cc1", "note": "(racemic)", "values": [{"measurement": "Activity", "setting": "ARPE-19 [1]", "value": 80, "unit": "%"}, {"measurement": "Activity", "setting": "T98G", "value": "Dose-dependent effect"}]}, {"smiles": "CN1CCN(CCCNC(=O)[C@H]2CC(=O)N(c3ccc(S(N)(=O)=O)cc3)[C@@H]2c2ccc(Cl)cc2)CC1", "note": "(racemic)", "values": [{"measurement": "Activity", "setting": "T98G", "value": "Dose-dependent effect"}, {"measurement": "Activity", "setting": "ARPE-19 [2]", "value": "Toxic"}]}, {"smiles": "NS(=O)(=O)c1ccc(N2C(=O)C[C@H](C(=O)NCCCN3CCCC3)[C@H]2c2ccc(Cl)cc2)cc1", "note": "(racemic)", "values": [{"measurement": "Activity", "setting": "ARPE-19 [1]", "value": 80, "unit": "%"}, {"measurement": "Activity", "setting": "T98G", "value": "Dose-dependent effect"}]}, {"smiles": "NS(=O)(=O)c1ccc(N2C(=O)C[C@H](C(=O)NCCC(=O)O)[C@H]2c2ccc(Cl)cc2)cc1", "note": "(racemic)", "values": [{"measurement": "Activity", "setting": "T98G", "value": "Dose-dependent effect"}]}, {"smiles": "NS(=O)(=O)c1ccc(N2C(=O)C[C@H](C(=O)NCCCO)[C@H]2c2ccc(Cl)cc2)cc1", "note": "(racemic)", "values": [{"measurement": "Activity", "setting": "T98G", "value": "Dose-dependent effect"}]}]}
